Laboratory results reported in PubChem BioAssay (NCI).
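Grown in 96-well plates, cells were treated for 48 hours with each compound at five concentrations. Insufficient inhibition: endpoint recorded as highest concentration tested. Definition used: TGI = concentration required for complete inhibition of growth.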

Columns and labels:
Experiment in all cases: NCI-60 cell line screen, 48 h
MALME-3M melanoma = tested on: MALME-3M melanoma
EKVX NSCLC = tested on: EKVX NSCLC
SW-620 colon = tested on: SW-620 colon
OVCAR-8 ovarian = tested on: OVCAR-8 ovarian
XF 498 CNS = tested on: XF 498 CNS
ACHN renal = tested on: ACHN renal
HOP-62 NSCLC = tested on: HOP-62 NSCLC
SF-295 CNS = tested on: SF-295 CNS
SF-539 CNS = tested on: SF-539 CNS
OVCAR-5 ovarian = tested on: OVCAR-5 ovarian
IGROV1 ovarian = tested on: IGROV1 ovarian
HCT-116 colon = tested on: HCT-116 colon
NCI-H460 lung = tested on: NCI-H460 lung
OVCAR-3 ovarian = tested on: OVCAR-3 ovarian
K-562 leukemia = tested on: K-562 leukemia
SR leukemia = tested on: SR leukemia
SK-OV-3 ovarian = tested on: SK-OV-3 ovarian
SK-MEL-5 melanoma = tested on: SK-MEL-5 melanoma
U251 CNS = tested on: U251 CNS
NCI-H23 lung = tested on: NCI-H23 lung
UACC-62 melanoma = tested on: UACC-62 melanoma
M19-MEL melanoma = tested on: M19-MEL melanoma
OVCAR-4 ovarian = tested on: OVCAR-4 ovarian
SNB-78 CNS = tested on: SNB-78 CNS
MOLT-4 leukemia = tested on: MOLT-4 leukemia
KM12 colon = tested on: KM12 colon
NCI-H522 lung = tested on: NCI-H522 lung
A549 NSCLC = tested on: A549 NSCLC
SK-MEL-28 melanoma = tested on: SK-MEL-28 melanoma
HCC-2998 colon = tested on: HCC-2998 colon
SN12C renal = tested on: SN12C renal
CCRF-CEM leukemia = tested on: CCRF-CEM leukemia
DLD-1 colon = tested on: DLD-1 colon
SNB-75 CNS = tested on: SNB-75 CNS
HCT-15 colon = tested on: HCT-15 colon
HT29 colon = tested on: HT29 colon
RXF 393 renal = tested on: RXF 393 renal
KM20L2 colon = tested on: KM20L2 colon
UO-31 renal = tested on: UO-31 renal
LOX IMVI melanoma = tested on: LOX IMVI melanoma
HL-60(TB) leukemia = tested on: HL-60(TB) leukemia
UACC-257 melanoma = tested on: UACC-257 melanoma
TK-10 renal = tested on: TK-10 renal
LXFL 529 NSCLC = tested on: LXFL 529 NSCLC
HOP-18 NSCLC = tested on: HOP-18 NSCLC
M14 melanoma = tested on: M14 melanoma
SK-MEL-2 melanoma = tested on: SK-MEL-2 melanoma
786-0 renal = tested on: 786-0 renal
RPMI-8226 leukemia = tested on: RPMI-8226 leukemia
NCI-H226 lung = tested on: NCI-H226 lung
SF-268 CNS = tested on: SF-268 CNS
HOP-92 NSCLC = tested on: HOP-92 NSCLC
SNB-19 CNS = tested on: SNB-19 CNS
A498 renal = tested on: A498 renal
DMS 114 small cell lung = tested on: DMS 114 small cell lung
DMS 273 small cell lung = tested on: DMS 273 small cell lung
COLO 205 colon = tested on: COLO 205 colon
CAKI-1 renal = tested on: CAKI-1 renal
RXF-631 renal = tested on: RXF-631 renal

Measured: TGI

COC1CC(OC)C(O)C(CO)O1 (stereo not drawn)
> 100 µM: MALME-3M melanoma | EKVX NSCLC | SW-620 colon | OVCAR-8 ovarian | XF 498 CNS | ACHN renal | HOP-62 NSCLC | SF-295 CNS | SF-539 CNS | OVCAR-5 ovarian | IGROV1 ovarian | HCT-116 colon | NCI-H460 lung | OVCAR-3 ovarian | K-562 leukemia | SR leukemia | SK-OV-3 ovarian | SK-MEL-5 melanoma | U251 CNS | NCI-H23 lung | UACC-62 melanoma | M19-MEL melanoma | OVCAR-4 ovarian | SNB-78 CNS | MOLT-4 leukemia | KM12 colon | NCI-H522 lung | A549 NSCLC | SK-MEL-28 melanoma | HCC-2998 colon | SN12C renal | CCRF-CEM leukemia | DLD-1 colon | SNB-75 CNS | HCT-15 colon | HT29 colon | RXF 393 renal | KM20L2 colon | UO-31 renal | LOX IMVI melanoma | HL-60(TB) leukemia | UACC-257 melanoma | TK-10 renal | LXFL 529 NSCLC | HOP-18 NSCLC | M14 melanoma | SK-MEL-2 melanoma | 786-0 renal

Nc1ncnc2c1ncn2C1CC(OC2CCCCO2)C(CO)O1 (stereo not drawn)
> 100 µM: MALME-3M melanoma | EKVX NSCLC | SW-620 colon | OVCAR-8 ovarian | XF 498 CNS | ACHN renal | HOP-62 NSCLC | SF-295 CNS | SF-539 CNS | OVCAR-5 ovarian | IGROV1 ovarian | HCT-116 colon | NCI-H460 lung | OVCAR-3 ovarian | K-562 leukemia | SR leukemia | SK-OV-3 ovarian | RPMI-8226 leukemia | NCI-H226 lung | SF-268 CNS | U251 CNS | NCI-H23 lung | HOP-92 NSCLC | M19-MEL melanoma | OVCAR-4 ovarian | SNB-19 CNS | SNB-78 CNS | MOLT-4 leukemia | KM12 colon | NCI-H522 lung | A549 NSCLC | A498 renal | SK-MEL-28 melanoma | HCC-2998 colon | SN12C renal | CCRF-CEM leukemia | DLD-1 colon | HCT-15 colon | HT29 colon | RXF 393 renal | KM20L2 colon | UO-31 renal | LOX IMVI melanoma | HL-60(TB) leukemia | DMS 114 small cell lung | UACC-257 melanoma | TK-10 renal | DMS 273 small cell lung | LXFL 529 NSCLC | COLO 205 colon | HOP-18 NSCLC | M14 melanoma | SK-MEL-2 melanoma | 786-0 renal

Cc1cc(=O)[nH]c(NNC(C#N)c2ccco2)n1 (stereo not drawn)
> 100 µM: MALME-3M melanoma | SW-620 colon | OVCAR-8 ovarian | ACHN renal | HOP-62 NSCLC | SF-295 CNS | SF-539 CNS | OVCAR-5 ovarian | IGROV1 ovarian | HCT-116 colon | NCI-H460 lung | OVCAR-3 ovarian | K-562 leukemia | SR leukemia | SK-OV-3 ovarian | RPMI-8226 leukemia | NCI-H226 lung | SK-MEL-5 melanoma | SF-268 CNS | U251 CNS | NCI-H23 lung | HOP-92 NSCLC | UACC-62 melanoma | M19-MEL melanoma | OVCAR-4 ovarian | SNB-78 CNS | MOLT-4 leukemia | KM12 colon | NCI-H522 lung | A549 NSCLC | SK-MEL-28 melanoma | SN12C renal | CCRF-CEM leukemia | DLD-1 colon | SNB-75 CNS | HCT-15 colon | HT29 colon | RXF 393 renal | KM20L2 colon | UO-31 renal | LOX IMVI melanoma | HL-60(TB) leukemia | DMS 114 small cell lung | UACC-257 melanoma | TK-10 renal | DMS 273 small cell lung | LXFL 529 NSCLC | COLO 205 colon | CAKI-1 renal | HOP-18 NSCLC | M14 melanoma | SK-MEL-2 melanoma | 786-0 renal

O=S(O)c1cc(Cl)cc(Cl)c1OCc1ccccc1
> 100 µM: MALME-3M melanoma | EKVX NSCLC | XF 498 CNS | ACHN renal | HOP-62 NSCLC | SF-539 CNS | OVCAR-5 ovarian | HCT-116 colon | NCI-H460 lung | OVCAR-3 ovarian | K-562 leukemia | SR leukemia | SK-OV-3 ovarian | SF-268 CNS | U251 CNS | NCI-H23 lung | UACC-62 melanoma | M19-MEL melanoma | OVCAR-4 ovarian | SNB-19 CNS | SNB-78 CNS | MOLT-4 leukemia | KM12 colon | NCI-H522 lung | A498 renal | SK-MEL-28 melanoma | HCC-2998 colon | SN12C renal | RXF-631 renal | CCRF-CEM leukemia | DLD-1 colon | SNB-75 CNS | HT29 colon | RXF 393 renal | UO-31 renal | LOX IMVI melanoma | HL-60(TB) leukemia | DMS 114 small cell lung | UACC-257 melanoma | TK-10 renal | LXFL 529 NSCLC | M14 melanoma | SK-MEL-2 melanoma
